Source: PubChem BioAssay AID256 (DTP/NCI, 2004)
“And” between values parts separate entries of the source, which are not always exact repeats. Identical values can stand only once. Toxic doses and inconclusive results are not listed. Rule for the calls: active = survival T/C of 150% or more; inactive = T/C below 125% in these data.

Test system: CD2F1 mice, L1210 leukemia ip, survival T/C
Experiment: NCI In Vivo Anticancer Drug Screen. Data for tumor model L1210 Leukemia (intraperitoneal) in CD2F1 (CDF1) mice
Details: higher = longer survival
How it was run: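 Activity against a transplanted murine tumor was judged by comparing the compound group with a vehicle group. The outcome in the treated animals was divided by that in the controls.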

[1] = endpoint: mean survival time, dose: 100.0 mg/kg/injection, schedule: Q01DX009 (ip), vehicle: saline with Tween-80
[2] = endpoint: mean survival time, dose: 400.0 mg/kg/injection, schedule: Q01DX009 (ip), vehicle: saline with Tween-80
[3] = endpoint: mean survival time, dose: 100.0 mg/kg/injection, schedule: Q04DX003 (ip), vehicle: saline with Tween-80
[4] = endpoint: mean survival time, dose: 200.0 mg/kg/injection, schedule: Q01DX009 (ip), vehicle: saline with Tween-80
[5] = endpoint: mean survival time, dose: 200.0 mg/kg/injection, schedule: Q04DX003 (ip), vehicle: saline with Tween-80
[6] = endpoint: mean survival time, dose: 400.0 mg/kg/injection, schedule: Q04DX003 (ip), vehicle: saline with Tween-80
[7] = endpoint: mean survival time, dose: 100.0 mg/kg/injection, schedule: Q01DX009 (ip), vehicle: other

Measured: T/C

CC(=O)c1ccc(Cc2ccc(C(C)=O)cc2)cc1
inactive: endpoint: mean survival time, dose: 100.0 mg/kg/injection, schedule: Q04DX003 (ip), vehicle: Klucel (hydroxypropylcellulose) (HPC) 103 % of control | endpoint: mean survival time, dose: 200.0 mg/kg/injection, schedule: Q04DX003 (ip), vehicle: Klucel (hydroxypropylcellulose) (HPC) 98 % of control | endpoint: mean survival time, dose: 400.0 mg/kg/injection, schedule: Q04DX003 (ip), vehicle: Klucel (hydroxypropylcellulose) (HPC) 97 % of control

NC(Cc1ccc(N(CCCl)Cc2ccccc2)cc1)C(=O)O (centres undefined)
inactive: endpoint: mean survival time, dose: 3.12 mg/kg/injection, schedule: Q01DX009 (ip), vehicle: distilled water + Tween-80 103 % of control and 107 % of control | endpoint: mean survival time, dose: 3.13 mg/kg/injection, schedule: Q01DX009 (ip), vehicle: distilled water + Tween-80 106 % of control

CN(C)[C@@H]1C(=O)C(C(=O)NCNc2nc3n[nH]nc3c(=O)[nH]2)=C(O)[C@@]2(O)C(=O)C3=C(O)c4c(O)cccc4[C@@](C)(O)[C@H]3C[C@@H]12
inactive: endpoint: mean survival time, dose: 50.0 mg/kg/injection, schedule: Q01DX009 (ip), vehicle: saline with Tween-80 117 % of control | [1] 123 % of control | [2] 94 % of control

OC(c1ccccc1)(c1ccccc1)c1ccccc1C(O)(c1ccccc1)c1ccccc1
inactive: endpoint: mean survival time, dose: 100.0 mg/kg/injection, schedule: Q01DX001 (ip), vehicle: Klucel (hydroxypropylcellulose) (HPC) 90 % of control | endpoint: mean survival time, dose: 200.0 mg/kg/injection, schedule: Q01DX001 (ip), vehicle: Klucel (hydroxypropylcellulose) (HPC) 90 % of control

O=P(CP(c1ccccc1)c1ccccc1)(c1ccccc1)c1ccccc1
inactive: endpoint: mean survival time, dose: 25.0 mg/kg/injection, schedule: Q04DX002 (ip), vehicle: saline with Tween-80 96 % of control | endpoint: mean survival time, dose: 50.0 mg/kg/injection, schedule: Q04DX002 (ip), vehicle: saline with Tween-80 92 % of control | endpoint: mean survival time, dose: 100.0 mg/kg/injection, schedule: Q04DX002 (ip), vehicle: saline with Tween-80 92 % of control

O=C(O)NNC(=O)NO
inactive: endpoint: mean survival time, dose: 100.0 mg/kg/injection, schedule: Q01DX009 (ip), vehicle: saline sonified 97 % of control | endpoint: mean survival time, dose: 200.0 mg/kg/injection, schedule: Q01DX009 (ip), vehicle: saline sonified 103 % of control | endpoint: mean survival time, dose: 400.0 mg/kg/injection, schedule: Q01DX009 (ip), vehicle: saline sonified 101 % of control

C1c2nnnn2Cc2nnnn21
inactive: endpoint: mean survival time, dose: 12.5 mg/kg/injection, schedule: Q04DX002 (ip), vehicle: saline 96 % of control | endpoint: mean survival time, dose: 25.0 mg/kg/injection, schedule: Q04DX002 (ip), vehicle: saline 104 % of control | endpoint: mean survival time, dose: 50.0 mg/kg/injection, schedule: Q04DX002 (ip), vehicle: saline 93 % of control

CCCC(=O)OCc1ccc(Cl)cc1Cl
inactive: [1] 96 % of control | [3] 91 % of control | [4] 98 % of control | [5] 89 % of control | [2] 98 % of control | [6] 96 % of control

C=C(N=[N+]=[N-])c1ccccc1
inactive: endpoint: mean survival time, dose: 12.5 mg/kg/injection, schedule: Q01DX009 (ip), vehicle: other 110 % of control | endpoint: mean survival time, dose: 25.0 mg/kg/injection, schedule: Q01DX009 (ip), vehicle: other 100 % of control | endpoint: mean survival time, dose: 50.0 mg/kg/injection, schedule: Q01DX009 (ip), vehicle: other 100 % of control | [7] 102 % of control

CO[C@H]1Nc2c(ccc(C)c2O)C(=O)N2C=C(/C=C/C(N)=O)C[C@@H]12
inactive: endpoint: mean survival time, dose: 0.1 mg/kg/injection, schedule: Q01DX015 (ip), vehicle: saline 111 % of control | endpoint: mean survival time, dose: 0.2 mg/kg/injection, schedule: Q01DX015 (ip), vehicle: saline 119 % of control | endpoint: mean survival time, dose: 0.25 mg/kg/injection, schedule: Q01DX009 (ip), vehicle: saline sonified 106 % of control | endpoint: mean survival time, dose: 0.36 mg/kg/injection, schedule: Q01DX015 (ip), vehicle: saline 120 % of control | endpoint: mean survival time, dose: 0.5 mg/kg/injection, schedule: Q01DX009 (ip), vehicle: saline sonified 104 % of control | endpoint: mean survival time, dose: 1.0 mg/kg/injection, schedule: Q01DX009 (ip), vehicle: saline sonified 91 % of control | endpoint: mean survival time, dose: 1.0 mg/kg/injection, schedule: Q04DX003 (ip), vehicle: saline with Tween-80 117 % of control | endpoint: mean survival time, dose: 1.5 mg/kg/injection, schedule: Q04DX003 (ip), vehicle: saline with Tween-80 118 % of control | endpoint: mean survival time, dose: 25.0 micrograms/kg/injection, schedule: Q01DX009 (ip), vehicle: saline with Tween-80 108 % of control | endpoint: mean survival time, dose: 50.0 micrograms/kg/injection, schedule: Q01DX009 (ip), vehicle: saline with Tween-80 117 % of control | endpoint: mean survival time, dose: 100.0 micrograms/kg/injection, schedule: Q01DX009 (ip), vehicle: saline with Tween-80 109 % of control | endpoint: mean survival time, dose: 200.0 micrograms/kg/injection, schedule: Q01DX009 (ip), vehicle: saline with Tween-80 117 % of control | endpoint: median survival time, dose: 0.01 mg/kg/injection, schedule: Q01DX005 (ip), vehicle: DMSO 102 % of control | endpoint: median survival time, dose: 0.02 mg/kg/injection, schedule: Q01DX005 (ip), vehicle: DMSO 117 % of control | endpoint: median survival time, dose: 0.04 mg/kg/injection, schedule: Q01DX005 (ip), vehicle: DMSO 118 % of control

CSc1ncnc2cn(C3OC(CO)C(O)C3O)nc12 (centres undefined)
inactive: endpoint: mean survival time, dose: 6.25 mg/kg/injection, schedule: Q01DX005 (ip), vehicle: water 96 % of control | endpoint: mean survival time, dose: 12.5 mg/kg/injection, schedule: Q01DX005 (ip), vehicle: water 100 % of control | endpoint: mean survival time, dose: 25.0 mg/kg/injection, schedule: Q01DX005 (ip), vehicle: water 114 % of control | endpoint: mean survival time, dose: 50.0 mg/kg/injection, schedule: Q01DX005 (ip), vehicle: water 92 % of control | endpoint: mean survival time, dose: 100.0 mg/kg/injection, schedule: Q01DX005 (ip), vehicle: water 100 % of control | endpoint: mean survival time, dose: 200.0 mg/kg/injection, schedule: Q01DX005 (ip), vehicle: water 86 % of control

Cc1ccc(S(=O)(=O)N(O)S(=O)(=O)c2ccc(C)cc2)cc1
inactive: endpoint: mean survival time, dose: 100.0 mg/kg/injection, schedule: Q01DX001 (ip), vehicle: saline with Tween-80 101 % of control | [1] 94 % of control | endpoint: mean survival time, dose: 200.0 mg/kg/injection, schedule: Q01DX001 (ip), vehicle: saline with Tween-80 94 % of control | [4] 92 % of control | endpoint: mean survival time, dose: 400.0 mg/kg/injection, schedule: Q01DX001 (ip), vehicle: saline with Tween-80 100 % of control | [2] 94 % of control

CCC12NC(=O)NC1(C)NC(=O)N2 (centres undefined)
inactive: endpoint: mean survival time, dose: 6.25 mg/kg/injection, schedule: Q01DX009 (ip), vehicle: saline with Tween-80 95 % of control | endpoint: mean survival time, dose: 6.25 mg/kg/injection, schedule: Q04DX003 (ip), vehicle: saline with Tween-80 102 % of control | endpoint: mean survival time, dose: 12.5 mg/kg/injection, schedule: Q01DX009 (ip), vehicle: saline with Tween-80 95 % of control | endpoint: mean survival time, dose: 12.5 mg/kg/injection, schedule: Q04DX003 (ip), vehicle: saline with Tween-80 106 % of control | endpoint: mean survival time, dose: 25.0 mg/kg/injection, schedule: Q01DX009 (ip), vehicle: saline with Tween-80 93 % of control | endpoint: mean survival time, dose: 25.0 mg/kg/injection, schedule: Q04DX003 (ip), vehicle: saline with Tween-80 110 % of control

CCCCCCCCCCCC(=O)NC(=S)Nc1ncccn1
inactive: endpoint: mean survival time, dose: 100.0 mg/kg/injection, schedule: Q01DX001 (ip), vehicle: other 93 % of control | [7] 91 % of control and 97 % of control | endpoint: mean survival time, dose: 100.0 mg/kg/injection, schedule: Q04DX002 (ip), vehicle: other 98 % of control | endpoint: mean survival time, dose: 200.0 mg/kg/injection, schedule: Q01DX001 (ip), vehicle: other 87 % of control | endpoint: mean survival time, dose: 200.0 mg/kg/injection, schedule: Q01DX009 (ip), vehicle: other 92 % of control and 93 % of control | endpoint: mean survival time, dose: 200.0 mg/kg/injection, schedule: Q04DX002 (ip), vehicle: other 102 % of control | endpoint: mean survival time, dose: 400.0 mg/kg/injection, schedule: Q01DX001 (ip), vehicle: other 93 % of control | endpoint: mean survival time, dose: 400.0 mg/kg/injection, schedule: Q01DX009 (ip), vehicle: other 92 % of control and 101 % of control | endpoint: mean survival time, dose: 400.0 mg/kg/injection, schedule: Q04DX002 (ip), vehicle: other 87 % of control

NS(=O)(=O)O
inactive: endpoint: mean survival time, dose: 12.5 mg/kg/injection, schedule: Q04DX003 (ip), vehicle: saline 98 % of control | endpoint: mean survival time, dose: 25.0 mg/kg/injection, schedule: Q04DX003 (ip), vehicle: saline 110 % of control | endpoint: mean survival time, dose: 50.0 mg/kg/injection, schedule: Q04DX003 (ip), vehicle: saline 102 % of control

COc1ccc(C(CC(=O)c2ccccc2)[Se]c2ccccc2)cc1 (centres undefined)
inactive: endpoint: median survival time, dose: 25.0 mg/kg/injection, schedule: Q01DX009 (ip), vehicle: Klucel (hydroxypropylcellulose) (HPC) 101 % of control | endpoint: median survival time, dose: 50.0 mg/kg/injection, schedule: Q01DX009 (ip), vehicle: Klucel (hydroxypropylcellulose) (HPC) 100 % of control | endpoint: median survival time, dose: 100.0 mg/kg/injection, schedule: Q01DX009 (ip), vehicle: Klucel (hydroxypropylcellulose) (HPC) 101 % of control | endpoint: median survival time, dose: 200.0 mg/kg/injection, schedule: Q01DX009 (ip), vehicle: Klucel (hydroxypropylcellulose) (HPC) 94 % of control

O=C(Oc1cccc(OC(=O)c2ccccc2)c1)c1ccccc1
inactive: [1] 100 % of control | [4] 97 % of control | [2] 95 % of control

CC1=C(C)C2(C)C1(C)C1(C)C(C)=C(C)C21C (centres undefined)
inactive: [3] 96 % of control | [5] 93 % of control | [6] 89 % of control
